PubChem BioAssay (NCI)
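Following 48 hours of exposure in 96-well plates, responses at five concentrations were used to interpolate endpoints linearly. GI50 = concentration required for 50% inhibition of growth. TGI denotes the concentration required for complete inhibition of growth.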

Experiments:
Assay in all cases: NCI tumour cell line growth inhibition, 48 h
UACC-62 melanoma = test system: UACC-62 melanoma
OVCAR-5 ovarian = test system: OVCAR-5 ovarian
HOP-92 NSCLC = test system: HOP-92 NSCLC
MDA-MB-435 = test system: MDA-MB-435
COLO 205 colon = test system: COLO 205 colon
786-0 renal = test system: 786-0 renal
CCRF-CEM leukemia = test system: CCRF-CEM leukemia
SW-620 colon = test system: SW-620 colon
LXFL 529 NSCLC = test system: LXFL 529 NSCLC
DMS 273 small cell lung = test system: DMS 273 small cell lung

SMILES | GI50 (UACC-62 melanoma) [µM] | TGI (UACC-62 melanoma) [µM] | GI50 (OVCAR-5 ovarian) [µM] | TGI (OVCAR-5 ovarian) [µM] | GI50 (HOP-92 NSCLC) [µM] | TGI (HOP-92 NSCLC) [µM] | GI50 (MDA-MB-435) [µM] | TGI (MDA-MB-435) [µM] | GI50 (COLO 205 colon) [µM] | TGI (COLO 205 colon) [µM] | GI50 (786-0 renal) [µM] | TGI (786-0 renal) [µM] | GI50 (CCRF-CEM leukemia) [µM] | TGI (CCRF-CEM leukemia) [µM] | GI50 (SW-620 colon) [µM] | TGI (SW-620 colon) [µM] | TGI (LXFL 529 NSCLC) [µM] | TGI (DMS 273 small cell lung) [µM]
COc1ccc2c(CNCCCCO)cc3cc4c(cc3c2c1)OCO4 | 1.59 | 3.29 | 2.72 | 8.95 | 0.598 | 4.4 | 0.982 | 3.54 | 1.36 | 4.41 | 1.63 | > 32.2 | 0.777 | 10.9 | 0.228 | 2.35 |  | 
Cc1nc2cc(O)c(O)cc2cc1Oc1ccc(NC(=O)Nc2ccc(Cl)c(Cl)c2)cc1 | 5.67 | 11.2 | 11.6 | 29.3 | 2.85 | 16.7 | 6.99 | > 32.5 | 10.3 | > 32.5 | 7.68 | 18.6 | 6.19 | 21.8 | 4.8 | > 32.5 |  | 
CCN1C(=O)N(c2c(F)c(OC)cc(OC)c2F)Cc2cnc3[nH]c(CN4CCOCC4)cc3c21 | 3.77 | 51.5 | 9.23 | > 100 | 2.06 | > 100 | 4.65 | > 100 | 3.15 | > 100 | 2.84 | 30.1 | 2.13 | > 100 | 3.51 | > 100 |  | 
COc1nc2c(nc(N)n2C2OC(CO)C(O)C(O)C2O)c(=O)n1C (stereo not drawn) |  | > 100 |  |  |  | > 100 |  |  |  | > 100 |  | > 100 |  | > 100 |  | > 100 | > 100 | 
COc1ccc(Cc2ccccc2C(=O)O)c2ccccc12 |  | 29.9 |  | 59.6 |  | 61.9 |  | 54.8 |  | 34.5 |  | > 100 |  | 95.3 |  | > 100 |  | 
O=c1c2ccccc2nc(-c2ccc(Cl)cc2)n1O |  | > 100 |  | > 100 |  | 88.8 |  | > 100 |  | > 100 |  | 94.4 |  | 59.8 |  | > 100 |  | 
CC(C)(C)c1cc(C(O)(C(F)(F)F)C(F)(F)F)c2c(c1)C(C(F)(F)F)(C(F)(F)F)OC(c1ccccc1)(C(C)(C)C)N2 (stereo not drawn) |  | 14.6 |  | 50.9 |  |  |  |  |  | 16.1 |  | > 100 |  |  |  | 16.7 | 12.5 | 13.6
COC(=O)c1ccc2c(c1)nc(-c1ccc(Cl)cc1)n2-c1cc(C(C)(C)C)[nH]n1 | 2.01 | 7.78 | 12.9 | 60.1 | 1.15 | 8.02 | 1.19 | 5 | 2.29 | 6.04 | 3.62 | 32 | 4.91 | > 100 | 3.24 | > 100 |  | 
Fc1ccc(Nc2nc(Nc3ccc(-c4nc5ccccc5[nH]4)cc3)nc(N3CCCC3)n2)cc1 | 1.77 | 3.61 | 2.93 | 8.19 | 1.76 | 5.38 | 3.38 | 11.3 | 1.81 | 3.73 | 1.8 | 3.35 | 2.98 | 10.4 | 1.87 | 3.7 |  | 
COc1ccc(C2CC(c3cc(OC)c(OC)c(OC)c3)=NN2)cc1 (stereo not drawn) | 7.63 | > 100 | 49.3 | > 100 | 20.1 | > 100 | 2.96 | 20.9 | 4 | 31 | 20.7 | > 100 | 6.34 | > 100 | 4.58 | > 100 |  | 
CNCCNc1nc2ccccc2c2c(=O)c3cccc(OC)c3sc12 | 1.57 | 2.97 | 1.64 | 3.27 | 1.13 | 3.77 | 1.67 | 3.09 | 1.11 | 2.68 | 1.76 | 3.35 | 1.43 | 3.2 | 0.575 | 2.11 |  | 
C[n+]1c2ccccc2c(NC2CCNCC2)c2[nH]c3ccccc3c21 | 0.215 | 1.08 | 1.76 | 17.6 | 1.15 | 6.86 | 2.33 | 8.42 | 0.264 | 2 | 2.46 | 16.3 | 0.48 | 3.13 | 1.23 | 6.73 |  | 
O=C(/C=N/O)c1c(-c2ccccc2)[nH]c(-c2ccccc2)c1-c1ccccc1 |  | 28.7 |  | 21.7 |  | 67.1 |  | 28.3 |  | 36.6 |  | > 100 |  | > 100 |  | 48.7 |  | 
COC(=O)/C(C#N)=C1\N=NNN1CCCc1ccccc1 |  | > 100 |  |  |  | > 100 |  |  |  | > 100 |  | > 100 |  | > 100 |  | > 100 | > 100 | > 100
CC1=C(C(=O)Nc2ccc(F)c(Cl)c2)C(c2cccc(Cl)c2)NC(=O)N1 (stereo not drawn) | 13.2 | 26.7 | 23 | 45.7 | 15.5 | 33 | 17.9 | 38 | 13.7 | 27.8 | 17.4 | 35.3 | 21.2 | 58.2 | 18.9 | 40.7 |  | 
O=C(CC1C(=O)Nc2ccccc2S1=O)Nc1cccc(Cl)c1 (stereo not drawn) |  | > 76.1 |  | > 100 |  | 53.8 |  | > 100 |  | > 66.1 |  | > 100 |  | > 57.6 |  | > 100 | > 100 | 
COC(=O)c1oc2c(C(=O)/C=C/c3ccc(OC)cc3)c(OCCCN3CCCCC3)ccc2c1C | 1.54 | 3 | 2.31 | 6.17 | 0.808 | 2.59 | 1.67 | 3.68 | 1.51 | 3.13 | 1.49 | 3.11 | 0.783 | 3.4 | 1.38 | 3.03 |  | 
O=C1C(c2ccccc2)=C(c2ccccc2)C(c2ccccc2)/C1=C1\C(=O)C(c2ccccc2)=C(c2ccccc2)C1c1ccccc1 (stereo not drawn) |  | > 100 |  | > 100 |  | > 100 |  |  |  | > 100 |  | > 100 |  |  |  | > 100 | > 100 | > 100
